One assay deals with KMS.12.BM cells. As to the kind of experiment: KMS.12.BM cell viability assay (Cell Titer-GLO, ATP quantitation). As to conditions: KMS.12.BM human myeloma cells, 3 days, concentration required for 50% cell death; read-out: KMS cellular IC50. It is filed as cell-based. Here is the method: KMS.12.BM cell line (human myeloma) was purchased from JCRB (Osaka, Japan) and maintained in RPMI with 10% FBS culture medium. To measure the cytotoxic activity of the compounds through ATP quantitation, the KMS.12.BM cells are plated in the RPMI culture medium at 5000 cells/well/per 100 μL into a 96-well polystyrene clear black tissue culture plate (Greiner-bio-one through VWR, NJ), in the presence or absence of a concentration range of test compounds. After 3 days, […] Cell Titer-GLO Luminescent (Promega, Madison, Wis.) cell culture agent is added to each well for 10 minutes at room temperature to stabilize the luminescent signal. This determines the number of viable cells in culture based on quantitation of the ATP present, which signals the presence of metabolically active cells. Luminescence is measured with the Top Count 384 (Packard Bioscience through Perkin Elmer, Boston, Mass.). […] IC50 data for the Examples is presented in Table 4 as determined by Assay B1.
A general note: In ATP-based viability assays light output follows the ATP content of the culture.

The next assay addresses BRD4-BD1 (Homo sapiens (Human), UniProt O60885). Kind of assay: BRD4 AlphaScreen assay, BRD4-BD1. In kind it is binding. As to conditions: biotin-labeled tetra-acetylated histone H4 peptide, 75 min, room temperature, read-out: BRD4 BD-1 enzyme IC50. In outline: (§1)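 IC50 values from percent-control versus log inhibitor fits after bead-based proximity readout (streptavidin donor, GSH acceptor, 75 min dark). Reactions: 75 min RT, pH 7.4 HEPES, biotin-H4Ac4 peptide 50 nM, with BD1 at 3.8 nM (DMSO 1.25%) and BD2 at 20 nM (DMSO 0.83%).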
A general note: Bead proximity is the source of the signal in Alpha formats.

A further assay deals with BRD4-BD2 (Homo sapiens (Human), UniProt O60885). Kind of assay: BRD4 AlphaScreen assay, BRD4-BD2. As to conditions: biotin-labeled tetra-acetylated histone H4 peptide, 75 min, room temperature, read-out: BRD4 BD-2 enzyme IC50. In kind it is binding. In outline:
as §1

In patent US9777003B2, “Tricyclic heterocycles as bet protein inhibitors” (Incyte Corporation, priority 2013, dated 2017) one finds IC50 data, which are given here for 28 molecules.

Each structure is given as a SMILES string. Where only a bound is given, the exact number is not on record here.

In the case of `Cc1cc2c(cc(N[C@@H]3CCN(C)[C@H](C)C3)c3nnc(C)n32)n1Cc1ccccc1` (mixture of isomers) [Example 224, 6-Benzyl-N-[(2S,4S)-1,2-dimethylpiperidin-4-yl]-1,7-dimethyl-6H-pyrrolo[2,3-e][1,2,4]triazolo[4,3-a]pyridin-4-amine and 6-Benzyl-N-[(2R,4R)-1,2-dimethylpiperidin-4-yl]-1,7-dimethyl-6H-pyrrolo[2,3-e][1,2,4]triazolo[4,3-a]pyridin-4-amine], in the assay with KMS.12.BM cells, the IC50 (in general, the concentration needed to halve the response being measured) was no more than 1000 nM.
As to `Cc1cc2c(cc(NCCCN(C)C)c3nnc(C)n32)n1Cc1ccccc1` [Example 245, N1-(6-Benzyl-1,7-dimethyl-6H-pyrrolo[2,3-e][1,2,4]triazolo[4,3-a]pyridin-4-yl)-N3,N3-dimethylpropane-1,3-diamine], the IC50 on BRD4-BD1 and at BRD4-BD2 was no more than 100 nM in each case.
Consider `Cc1cc2c(cc(NCCN(C)C)c3nnc(C)n32)n1Cc1ccccc1` [Example 246, N1-(6-Benzyl-1,7-dimethyl-6H-pyrrolo[2,3-e][1,2,4]triazolo[4,3-a]pyridin-4-yl)-N2,N2-dimethylethane-1,2-diamine], for which the IC50 at BRD4-BD1 and at BRD4-BD2 was no more than 100 nM each time.
`Cc1cc2c(cc(N[C@H]3C[C@H](O)C3)c3nnc(C)n32)n1Cc1ccccc1` [Example 247, trans-3-(6-Benzyl-1,7-dimethyl-6H-pyrrolo[2,3-e][1,2,4]triazolo[4,3-a]pyridin-4-ylamino)cyclobutanol]: the IC50 on BRD4-BD1 and on BRD4-BD2 was no more than 100 nM throughout.
As for `Cc1cc2c(cc(NC(=O)OC(C)(C)C)c3nnc(C)n32)n1Cc1ccccc1` [Example 248, tert-Butyl 6-benzy1-1,7-dimethyl-6H-pyrrolo[2,3-e][1,2,4]triazolo[4,3-a]pyridin-4-ylcarbamate], the half-maximal inhibitory concentration (IC50) is 100 to 1000 nM on BRD4-BD1 and no more than 100 nM at BRD4-BD2.
For the molecule `CCNC(=O)Nc1cc2c(cc(C)n2Cc2ccccc2)n2c(C)nnc12` [Example 249, 1-(6-Benzyl-1,7-dimethyl-6H-pyrrolo[2,3-e][1,2,4]triazolo[4,3-a]pyridin-4-yl)-3-ethylurea], the IC50 on BRD4-BD1 and at BRD4-BD2 was no more than 100 nM throughout.
For `Cc1cc2c(cc(NC(=O)NC(C)C)c3nnc(C)n32)n1Cc1ccccc1` [Example 250, 1-(6-Benzyl-1,7-dimethyl-6H-pyrrolo[2,3-e][1,2,4]triazolo[4,3-a]pyridin-4-yl)-3-isopropylurea], the IC50 at BRD4-BD1 and at BRD4-BD2 was no more than 100 nM in each case.
`Cc1cc2c(cc(NC(=O)N(C)C)c3nnc(C)n32)n1Cc1ccccc1` [Example 251, 3-(6-Benzyl-1,7-dimethyl-6H-pyrrolo[2,3-e][1,2,4]triazolo[4,3-a]pyridin-4-yl)-1,1-dimethylurea]: the figures for the IC50 on BRD4-BD1 and at BRD4-BD2 were 100 to 1000 nM and no more than 100 nM, respectively.
Taken in the same sequence, the figures for `Cc1cc2c(cc(NC(N)=O)c3nnc(C)n32)n1Cc1ccccc1` [Example 252, 1-(6-Benzyl-1,7-dimethyl-6H-pyrrolo[2,3-e][1,24]triazolo[4,3-a]pyridin-4-yl)urea] were no more than 100 nM and no more than 100 nM.
As to `Cc1cc2c(cc(Nc3ncc[nH]3)c3nnc(C)n32)n1Cc1ccccc1` [Example 253, 6-Benzyl-N-(1H-imidazol-2-yl)-1,7-dimethyl-6H-pyrrolo[2,3-e][1,2,4]triazolo[4,3-a]pyridin-4-amine], the IC50 at BRD4-BD1 and on BRD4-BD2 was no more than 100 nM each time.
On to `Cc1cc2c(cc(NC(N)=O)c3nnc(C)n32)n1Cc1c(F)cccc1F` [Example 254, 1-(6-(2,6-Difluorobenzyl)-1,7-dimethyl-6H-pyrrolo[2,3-e][1,2,4]triazolo[4,3-a]pyridin-4-yl)urea], for which the concentration for half-maximal inhibition (IC50) on BRD4-BD1 and at BRD4-BD2 was no more than 100 nM in each case.
As to `Cc1cc2c(cc(Nc3ccncc3)c3nnc(C)n32)n1Cc1ccccc1` [Example 255, 6-Benzyl-1,7-dimethyl-N-(pyridin-4-yl)-6H-pyrrolo[2,3-e][1,2,4]triazolo[4,3-a]pyridin-4-amine], the IC50 on BRD4-BD1 is 100 to 1000 nM; at BRD4-BD2 it was no more than 100 nM.
With `Cc1cc2c(cc(Nc3cccnc3)c3nnc(C)n32)n1Cc1ccccc1` [Example 256, 6-Benzyl-1,7-dimethyl-N-(pyridin-3-yl)-6H-pyrrolo[2,3-e][1,2,4]triazolo[4,3-a]pyridin-4-amine], the IC50 on BRD4-BD1 and at BRD4-BD2 was no more than 100 nM in each case.
On to `Cc1cc2c(cc(NCCCN)c3nnc(C)n32)n1Cc1ccccc1` [Example 257, N1-(6-Benzyl-1,7-dimethyl-6H-pyrrolo[2,3-e][1,2,4]triazolo[4,3-a]pyridin-4-yl)propane-1,3-diamine], for which the IC50 on BRD4-BD1 and at BRD4-BD2 was no more than 100 nM each time.
`Cc1cc2c(cc(NCCN)c3nnc(C)n32)n1Cc1ccccc1` [Example 258, N1-(6-benzyl-1,7-dimethyl-6H-pyrrolo[2,3-e][1,2,4]triazolo[4,3-a]pyridin-4-yl)ethane-1,2-diamine]: the 50% inhibitory concentration (IC50) at BRD4-BD1 and at BRD4-BD2 was no more than 100 nM in each case.
As to `CCNc1cc2c(cc(C)n2Cc2ccccc2)n2c(C)nnc12` [Example 259, 6-Benzyl-N-ethyl-1,7-dimethyl-6H-pyrrolo[2,3-e][1,2,4]triazolo[4,3-a]pyridin-4-amine], the IC50 at BRD4-BD1 and on BRD4-BD2 was no more than 100 nM each time.
Take `Cc1cc2c(cc(Nc3ccccc3)c3nnc(C)n32)n1Cc1ccccc1` [Example 260, 6-Benzyl-1,7-dimethyl-N-phenyl-6H-pyrrolo[2,3-e][1,2,4]triazolo[4,3-a]pyridin-4-amine]: the concentration for half-maximal inhibition (IC50) on BRD4-BD1 and on BRD4-BD2 was no more than 100 nM throughout.
For `CNc1cc2c(cc(C)n2Cc2ccccc2)n2c(C)nnc12` [Example 261, 6-Benzyl-N,1,7-trimethyl-6H-pyrrolo[2,3-e][1,2,4]triazolo[4,3-a]pyridin-4-amine], the 50% inhibitory concentration (IC50) on BRD4-BD1 and at BRD4-BD2 was no more than 100 nM in each case.
Turning to `CCCNc1cc2c(cc(C)n2Cc2ccccc2)n2c(C)nnc12` [Example 262, 6-Benzyl-N-propyl-1,7-dimethyl-6H-pyrrolo[2,3-e][1,2,4]triazolo[4,3-a]pyridin-4-amine], the IC50 on BRD4-BD1 and on BRD4-BD2 was no more than 100 nM throughout.
Consider `Cc1cc2c(cc(NC(C)C)c3nnc(C)n32)n1Cc1ccccc1` [Example 263, 6-Benzyl-N-isopropyl-1,7-dimethyl-6H-pyrrolo[2,3-e][1,2,4]triazolo[4,3-a]pyridin-4-amine], for which the 50% inhibitory concentration (IC50) at BRD4-BD1 and at BRD4-BD2 was no more than 100 nM in each case.
In the case of `COc1cc2c(cc(C)n2Cc2ccccc2)n2c(C)nnc12` [Example 264, 6-Benzyl-4-methoxy-1,7-dimethyl-6H-pyrrolo[2,3-e][1,2,4]triazolo[4,3-a]pyridine], the IC50 on BRD4-BD1 and at BRD4-BD2 was 100 to 1000 nM in each case.
Regarding `CC(=O)Nc1cc2c(cc(C)n2Cc2ccccc2)n2c(C)nnc12` [Example 266, N-(6-Benzyl-1,7-dimethyl-6H-pyrrolo[2,3-e][1,2,4]triazolo[4,3-a]pyridin-4-yl)acetamide], the IC50 on BRD4-BD1 and at BRD4-BD2 was no more than 100 nM throughout.
Turning to `CCCC(=O)Nc1cc2c(cc(C)n2Cc2ccccc2)n2c(C)nnc12` [Example 267, N-(6-Benzyl-1,7-dimethyl-6H-pyrrolo[2,3-e][1,2,4]triazolo[4,3-a]pyridin-4-yl)butyramide], the figures for the 50% inhibitory concentration (IC50) at BRD4-BD1 and at BRD4-BD2 were 100 to 1000 nM and no more than 100 nM, respectively.
Take `CCC(=O)Nc1cc2c(cc(C)n2Cc2ccccc2)n2c(C)nnc12` [Example 268, N-(6-Benzyl-1,7-dimethyl-6H-pyrrolo[2,3-e][1,2,4]triazolo[4,3-a]pyridin-4-yl)propionamide]: the IC50 on BRD4-BD1 and at BRD4-BD2 was no more than 100 nM in each case.
As for `Cc1cc2c(cc(NC(=O)C3CC3)c3nnc(C)n32)n1Cc1ccccc1` [Example 269, N-(6-Benzyl-1,7-dimethyl-6H-pyrrolo[2,3-e][1,2,4]triazolo[4,3-a]pyridin-4-yl)cyclopropanecarboxamide], the IC50 at BRD4-BD1 and at BRD4-BD2 was no more than 100 nM throughout.
Turning to `Cc1cc2c(cc(NC(=O)C(C)C)c3nnc(C)n32)n1Cc1ccccc1` [Example 270, N-(6-Benzyl-1,7-dimethyl-6H-pyrrolo[2,3-e][1,2,4]triazolo[4,3-a]pyridin-4-yl)isobutyramide], the 50% inhibitory concentration (IC50) on BRD4-BD1 and at BRD4-BD2 was no more than 100 nM in each case.
`Cc1cc2c(cc(NS(C)(=O)=O)c3nnc(C)n32)n1Cc1ccccc1` [Example 271, N-(6-Benzyl-1,7-dimethyl-6H-pyrrolo[2,3-e][1,2,4]triazolo[4,3-a]pyridin-4-yl)methanesulfonamide]: the IC50 on BRD4-BD1 is 100 to 1000 nM; at BRD4-BD2, no more than 100 nM.
Consider `COC(=O)Nc1cc2c(cc(C)n2Cc2ccccc2)n2c(C)nnc12` [Example 272, Methyl 6-benzyl-1,7-dimethyl-6H-pyrrolo[2,3-e][1,2,4]triazolo[4,3-a]pyridin-4-ylcarbamate], for which the IC50 on BRD4-BD1 and at BRD4-BD2 was no more than 100 nM each time.
